The values below come from patent US10550108B2, “Poly(ADP-ribose) polymerase 1 inhibitors structurally unrelated to NAD” (Institute for Cancer Research, priority 2014, dated 2020).

“Also recorded” adds a separate entry of the source.

Sequence of PARP-1 (P09874 whole entry): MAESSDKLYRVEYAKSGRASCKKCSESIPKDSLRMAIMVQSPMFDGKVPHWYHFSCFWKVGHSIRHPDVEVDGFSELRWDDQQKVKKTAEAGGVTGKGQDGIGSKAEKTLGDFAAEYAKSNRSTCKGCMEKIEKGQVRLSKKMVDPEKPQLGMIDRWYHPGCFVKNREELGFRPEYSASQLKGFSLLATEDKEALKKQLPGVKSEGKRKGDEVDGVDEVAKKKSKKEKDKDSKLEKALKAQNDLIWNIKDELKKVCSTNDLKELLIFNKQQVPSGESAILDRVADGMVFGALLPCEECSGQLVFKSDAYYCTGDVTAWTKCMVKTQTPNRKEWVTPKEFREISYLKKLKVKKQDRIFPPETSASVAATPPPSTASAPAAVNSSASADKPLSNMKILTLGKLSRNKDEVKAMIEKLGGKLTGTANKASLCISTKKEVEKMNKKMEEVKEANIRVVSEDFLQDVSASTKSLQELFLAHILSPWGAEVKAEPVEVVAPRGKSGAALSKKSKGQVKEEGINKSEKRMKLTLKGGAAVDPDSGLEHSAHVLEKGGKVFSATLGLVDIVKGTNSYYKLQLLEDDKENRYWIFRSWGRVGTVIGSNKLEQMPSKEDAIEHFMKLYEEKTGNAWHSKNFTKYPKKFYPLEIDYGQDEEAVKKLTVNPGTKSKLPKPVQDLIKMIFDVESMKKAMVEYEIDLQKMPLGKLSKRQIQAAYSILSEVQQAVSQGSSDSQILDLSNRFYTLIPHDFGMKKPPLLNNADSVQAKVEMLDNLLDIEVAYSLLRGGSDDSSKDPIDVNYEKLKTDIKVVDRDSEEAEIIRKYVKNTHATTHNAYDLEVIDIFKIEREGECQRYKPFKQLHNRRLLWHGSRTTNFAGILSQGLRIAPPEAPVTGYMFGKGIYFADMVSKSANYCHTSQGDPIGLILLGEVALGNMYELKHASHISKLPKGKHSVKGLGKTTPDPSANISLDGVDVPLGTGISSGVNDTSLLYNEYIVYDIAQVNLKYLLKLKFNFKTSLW

One series deals with normal breast-derived cells HMEK. In words: Cell survival assay (alamarBlue), normal cells. In kind it is cell-based, human. As to conditions: 72 hr. As for the experimental part:
(§1) Normal cells and cancer-derived cells were plated at a density of 10^4 cells/well (100 μl) in a 96-well plate. On the next day, Olaparib, a NAD-mimetic, or 5F02, 4D11, 5A03, 5H03, 1C09, new non-NAD-like inhibitors, were added. Cells were grown for 72 hr. 20 μl/well of alamarBlue® reagent was added; fluorescence readings were taken.
(§2) The cytotoxic effects of treatment by classical inhibitor Olaparib and the new inhibitors was compared using breast cancer-derived cells BT474 and normal breast-derived cells HMEK.
As for `O=C(c1cc(Cc2n[nH]c(=O)c3ccccc23)ccc1F)N1CCN(C(=O)C2CC2)CC1` [Olaparib], the “cytotoxicity to normal cells” value was “killed both normal and cancer cells”.

The next series has as its target PARP-1 (Homo sapiens, UniProt P09874). Briefly: PARP-1 activation screening assay, 384-well ELISA plate coated with histone H4. As to conditions: pilot screen of ICCB Known Bioactives library; pADPr ELISA signal (absorbance at 650 or 450 nm as indicator of PARP-1 activity). Background: An ELISA detects its analyte on a solid surface through an enzyme-linked reagent.
Text: The screening platform included a PARP1 activation assay in plates coated with histone H4. PARP1 reactions were set up in each well of the plate in the presence of a single small molecule test compound or a positive or negative control compound. The product of the reaction between PARP1 and H4, poly-ADP-ribose, was then quantified, with absorbance at 650 nm or 450 nm used as an indicator of PARP1 activity (FIG. 2A).
A PARP-1 activation screening assay was designed using a 384-well ELISA plate coated with histone H4 protein-activator. PARP-1 reactions were set up in each well in presence of single a small molecule compound or a positive and a negative control. […] The product of these reactions, poly-(ADP)-ribose, was quantified. Absorbance at 650 or 450 nm was used as an indicator of PARP-1 activity (FIG. 2A). As the test library for this screening assay, the ICCB Known Bioactives library of 480 compounds was used, which includes all popular PARP-1 inhibitors.
For `CC1(C)Oc2ccc(C#N)cc2[C@@H](OC2=CC(=O)CC2)[C@@H]1O` [PCO-400], the Value was found to be 2.01. `Br.NC1CCc2cc(O)c(O)cc2C1` (stereo not drawn) [6,7-ADTN HBr] came in with a Value of 0.50.

For the molecule `CNc1ccc2oc(C[C@H]3O[C@@]4(CC[C@H]3C)O[C@H]([C@H](C)C(=O)c3ccc[nH]3)[C@H](C)C[C@H]4C)nc2c1C(=O)O` [Formula A-23187, A-23187], the Value came out at 1.22. Take `C=C1O[C@@](CO)(n2cnc3c(N)ncnc32)[C@H](O)[C@@H]1O` [Decoyinine]: the Value was determined as 2.00.

The molecule `C=C1[C@@H](C)[C@H]2[C@H](Cc3ccccc3)NC(=O)[C@]23OC(=O)/C=C/[C@H](O)CCC[C@@H](C)C/C=C/[C@H]3[C@@H]1O` [Cytochalasin B] displayed a Value of 2.03. For the molecule `NCCNS(=O)(=O)c1cccc2cnccc12` [Formula H9], the Value is 0.05. Molecule `[Cl-].c1ccc2c(c1)[I+]c1ccccc1-2` [Diphenyleneiodonium Cl] showed a Value of 0.20. In the case of `COc1cccc(-c2cc(=O)c3ccccc3o2)c1N` [PD 98059], the Value worked out at 0.69. The same measure, in the same setting: with `CC(C)Cn1c(=O)n(C)c(=O)c2[nH]cnc21` [IBMX] the figure was 0.94; with `O=c1[nH]c2ccccc2c2ccccc12` [6(5H)-Phenanthridinone], 0.05; with `CN(C)C[C@H](O)Cn1c2ccc(Br)cc2c2cc(Br)ccc21` (racemic) [Wiskostatin], 1.90. Take `CN(C)C(=O)C(CCN1CCC(O)(c2ccc(Cl)cc2)CC1)(c1ccccc1)c1ccccc1` [Loperamide]: the Value is recorded as 2.34.

`CC[N+](C)(CC)CCC[n+]1c(-c2ccccc2)c2cc(N)ccc2c2ccc(N)cc21.[I-].[I-]` [Propidium iodide] displayed a Value of 0.18.

For `N#C/C(=C\c1ccc(O)c(O)c1)C(N)=S` [AG213 (Tyrphostin 47)], the Value is recorded as 1.28. Consider `O=c1c(O)c(-c2ccc(O)c(O)c2)oc2cc(O)cc(O)c12` [Quercetin], for which the Value is 0.18. The molecule `CCOC(=O)CN1C(=O)CC(C[C@@H](O)[C@@H]2C[C@@H](C)C[C@H](C)C2=O)CC1=O` [Cycloheximide-N-ethylethanoate] showed a Value of 1.89.

A further series has as its system breast cancer-derived cells BT474. In words: Cell survival assay (alamarBlue), cancer-derived cells. It is filed as cell-based, human. As to conditions: 72 hr. As for the experimental part:
as §1, §2
Turning to `O=C(c1cc(Cc2n[nH]c(=O)c3ccccc23)ccc1F)N1CCN(C(=O)C2CC2)CC1` [Olaparib], the “cytotoxic effect on cancer-derived cells” value is “eliminate cancer-derived cells at similar concentrations; also recorded: killed both normal and cancer cells”.
